Tested on: MDA-MB-468 spheroids with HUVEC/MSC, viability
Test: Anticancer human tumor MDA-MB-468 cell line growth inhibition [PI3K];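 also: spheroids exposed to agents for seven days before readout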;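 as to viability, T/C: 100% = DMSO vehicle control viability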
Details: for IC50: curve of first compound; for viability, T/C: stronger effect = lower value
In short: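 Spheroid viability read-out. Co-cultures contained the tumor line plus HUVEC and human MSCs. Each agent was paired with a PI3K inhibitor (inavolisib, alpelisib, duvelisib, copanlisib) across half-log dilutions starting at clinical Cmax, or at 10 microM when Cmax was unknown.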

SMILES: CNC(=O)c1ccc(N2C(=S)N(c3ccc(C#N)c(C(F)(F)F)c3)C(=O)C2(C)C)cc1F + COc1c(OCCCN2CCOCC2)ccc2c3n(c(=NC(=O)c4cnc(N)nc4)nc12)CCN3
- IC50 (second compound 0.00316 µM): > 10 µM
- IC50 (second compound 0.01 µM): > 10 µM
- IC50 (second compound 0.0316 µM): > 10 µM
- IC50 (second compound 0.1 µM): > 10 µM
- IC50 (second compound 0.316 µM): < 0.0316 µM
- IC50 (second compound 1 µM): < 0.0316 µM
- viability, T/C (second compound 0.00316 µM, first compound 0.0316 µM): 85.4%
- viability, T/C (second compound 0.00316 µM, first compound 0.1 µM): 90.6%
- viability, T/C (second compound 0.00316 µM, first compound 0.316 µM): 88.5%
- viability, T/C (second compound 0.00316 µM, first compound 1 µM): 101%
- viability, T/C (second compound 0.00316 µM, first compound 3.16 µM): 77.4%
- viability, T/C (second compound 0.00316 µM, first compound 10 µM): 70.8%
- viability, T/C (second compound 0.01 µM, first compound 0.0316 µM): 81.9%
- viability, T/C (second compound 0.01 µM, first compound 0.1 µM): 89.8%
- viability, T/C (second compound 0.01 µM, first compound 0.316 µM): 87.8%
- viability, T/C (second compound 0.01 µM, first compound 1 µM): 86.2%
- viability, T/C (second compound 0.01 µM, first compound 3.16 µM): 79.7%
- viability, T/C (second compound 0.01 µM, first compound 10 µM): 75.6%
- viability, T/C (second compound 0.0316 µM, first compound 0.0316 µM): 82.4%
- viability, T/C (second compound 0.0316 µM, first compound 0.1 µM): 80.7%
- viability, T/C (second compound 0.0316 µM, first compound 0.316 µM): 82.8%
- viability, T/C (second compound 0.0316 µM, first compound 1 µM): 80.2%
- viability, T/C (second compound 0.0316 µM, first compound 3.16 µM): 82.5%
- viability, T/C (second compound 0.0316 µM, first compound 10 µM): 60.7%
- viability, T/C (second compound 0.1 µM, first compound 0.0316 µM): 52.7%
- viability, T/C (second compound 0.1 µM, first compound 0.1 µM): 54.2%
- viability, T/C (second compound 0.1 µM, first compound 0.316 µM): 59.5%
- viability, T/C (second compound 0.1 µM, first compound 1 µM): 57%
- viability, T/C (second compound 0.1 µM, first compound 3.16 µM): 59.9%
- viability, T/C (second compound 0.1 µM, first compound 10 µM): 49.2%
- viability, T/C (second compound 0.316 µM, first compound 0.0316 µM): 26.4%
- viability, T/C (second compound 0.316 µM, first compound 0.1 µM): 27.4%
- viability, T/C (second compound 0.316 µM, first compound 0.316 µM): 29.3%
- viability, T/C (second compound 0.316 µM, first compound 1 µM): 30.1%
- viability, T/C (second compound 0.316 µM, first compound 3.16 µM): 29.6%
- viability, T/C (second compound 0.316 µM, first compound 10 µM): 20.8%
- viability, T/C (second compound 1 µM, first compound 0.0316 µM): 4.39%
- viability, T/C (second compound 1 µM, first compound 0.1 µM): 4.39%
- viability, T/C (second compound 1 µM, first compound 0.316 µM): 4.07%
- viability, T/C (second compound 1 µM, first compound 1 µM): 4.23%
- viability, T/C (second compound 1 µM, first compound 3.16 µM): 4.41%
- viability, T/C (second compound 1 µM, first compound 10 µM): 2.21%

SMILES: Cn1cnc2c(F)c(Nc3ccc(Br)cc3Cl)c(C(=O)NOCCO)cc21 + COc1c(OCCCN2CCOCC2)ccc2c3n(c(=NC(=O)c4cnc(N)nc4)nc12)CCN3
- IC50 (second compound 0.00316 µM): > 3 µM
- IC50 (second compound 0.01 µM): > 3 µM
- IC50 (second compound 0.0316 µM): 1.08 µM
- IC50 (second compound 0.1 µM): 0.114 µM
- IC50 (second compound 0.316 µM): < 0.00949 µM
- IC50 (second compound 1 µM): < 0.00949 µM
- viability, T/C (second compound 0.00316 µM, first compound 0.00949 µM): 80.8%
- viability, T/C (second compound 0.00316 µM, first compound 0.03 µM): 88.8%
- viability, T/C (second compound 0.00316 µM, first compound 0.0949 µM): 84.4%
- viability, T/C (second compound 0.00316 µM, first compound 0.3 µM): 78.3%
- viability, T/C (second compound 0.00316 µM, first compound 0.949 µM): 62.5%
- viability, T/C (second compound 0.00316 µM, first compound 3 µM): 55.8%
- viability, T/C (second compound 0.01 µM, first compound 0.00949 µM): 74.8%
- viability, T/C (second compound 0.01 µM, first compound 0.03 µM): 76.6%
- viability, T/C (second compound 0.01 µM, first compound 0.0949 µM): 81.1%
- viability, T/C (second compound 0.01 µM, first compound 0.3 µM): 64.9%
- viability, T/C (second compound 0.01 µM, first compound 0.949 µM): 60.6%
- viability, T/C (second compound 0.01 µM, first compound 3 µM): 49.3%
- viability, T/C (second compound 0.0316 µM, first compound 0.00949 µM): 68%
- viability, T/C (second compound 0.0316 µM, first compound 0.03 µM): 69.7%
- viability, T/C (second compound 0.0316 µM, first compound 0.0949 µM): 64.2%
- viability, T/C (second compound 0.0316 µM, first compound 0.3 µM): 57.3%
- viability, T/C (second compound 0.0316 µM, first compound 0.949 µM): 53.8%
- viability, T/C (second compound 0.0316 µM, first compound 3 µM): 37.3%
- viability, T/C (second compound 0.1 µM, first compound 0.00949 µM): 55.2%
- viability, T/C (second compound 0.1 µM, first compound 0.03 µM): 47.9%
- viability, T/C (second compound 0.1 µM, first compound 0.0949 µM): 51.2%
- viability, T/C (second compound 0.1 µM, first compound 0.3 µM): 46.4%
- viability, T/C (second compound 0.1 µM, first compound 0.949 µM): 32.1%
- viability, T/C (second compound 0.1 µM, first compound 3 µM): 15.6%
- viability, T/C (second compound 0.316 µM, first compound 0.00949 µM): 26.5%
- viability, T/C (second compound 0.316 µM, first compound 0.03 µM): 23.4%
- viability, T/C (second compound 0.316 µM, first compound 0.0949 µM): 18.5%
- viability, T/C (second compound 0.316 µM, first compound 0.3 µM): 16.4%
- viability, T/C (second compound 0.316 µM, first compound 0.949 µM): 11.8%
- viability, T/C (second compound 0.316 µM, first compound 3 µM): 4.57%
- viability, T/C (second compound 1 µM, first compound 0.00949 µM): 2.75%
- viability, T/C (second compound 1 µM, first compound 0.03 µM): 2.53%
- viability, T/C (second compound 1 µM, first compound 0.0949 µM): 1.74%
- viability, T/C (second compound 1 µM, first compound 0.3 µM): 1.38%
- viability, T/C (second compound 1 µM, first compound 0.949 µM): 1.4%
- viability, T/C (second compound 1 µM, first compound 3 µM): 0.51%

Source: PubChem BioAssay AID1963960 (Molecular Pharmacology Branch, DTP, NCI, 2024)
